Test results: patent US20230172951A1, “METHODS OF USING BILE ACIDS TO TREAT VIRAL INFECTIONS” (HOFFMAN TECHNOLOGIES LLC, priority 2020, published 2023)

How the values were obtained:
Vero E6 cells = assay: Cytotoxicity / cell growth observed in Vero E6 cells during the neutralization assay; settings: for Cell growth: 1.25 mg/mL, also seen in corresponding DMSO controls (1.25%), attributed to DMSO
[1] = test system: SARS-CoV-2 (USA-WA1/2020 strain); assay: SARS-CoV-2 neutralization assay in Vero E6 cells, cytopathic effect (CPE) read-out; format: cell-based; settings: for Inhibition of SARS-CoV-2 infection of Vero cells / Day 2 CPE / Day 4 CPE: 1.25 mg/mL; for Inhibition of SARS-CoV-2 infection of Vero cells: dosed simultaneously with viral addition to cells; for EC50 (inhibition of SARS-CoV-2 CPE): Vero E6 cells, calculated by the Quest Graph EC50 Calculator (AAT Bioquest); for Day 2 CPE / Day 4 CPE: five replicate wells; for Day 2 CPE: Day 2 post-infection; for Day 4 CPE: Day 4 post-infection
COVID-19 = assay: Subject presenting with COVID-19 symptoms taking TUDCA capsules (Example 3); format: in vivo; settings: 500 mg capsule, twice per day; after several days
Procedure: A subject presenting with COVID-19 symptoms was instructed to administer one gelatin capsule of TUDCA (500 mg, powder in capsule), twice per day.

[2] = Solubility on dilution of DMSO stock in DMEM/F12; format: physicochemical
Procedure: The Vero E6 cells were plated on 96-well plates the day before the assay and were allowed to grow to ˜60% confluence. All three drugs were reconstituted with DMSO to a concentration of 100 mg/mL. That was further diluted in DMEM/F12 to 5 mg/mL. […] A 1:2 serial dilution series was performed to examine final concentrations of 1.25, 0.625, 0.31, 0.156, 0.078, 0.039, and 0.02 mg/mL. DMSO controls were used to account for DMSO concentrations at 1.25, 0.625, 0.31, 0.156, 0.078, 0.039, and 0.02%. Dilutions were pre-incubated with virus for 60 minutes prior to addition to cells. This was to allow drug to interact with virus prior to virus infection. Additionally, drug and virus were added to Vero cells simultaneously. 45 minutes after virus addition, DMEM/F12+FBS was added to feed the cells. The assay was executed in five replicates for each condition. Test wells received approximately 100 TCID50/well of SARS-CoV-2. Growth of the Vero E6 cells was observed and monitored for cytopathic effects (CPE) associated with successful virus replication. All wells were examined on Day 2 and Day 4 post-infection.

SARS-CoV-2 / COVID-19 = format: in vivo; settings: 500 mg capsule, twice per day
[3] = pre-incubation with virus for 60 minutes
[4] = simultaneous addition of drug and virus

For `C[C@H](CCC(=O)NCCS(=O)(=O)[O-])[C@H]1CC[C@H]2[C@@H]3[C@@H](O)C[C@@H]4C[C@H](O)CC[C@]4(C)[C@H]3CC[C@]12C.[Na+]` [Sodium TUDCA], the Cell growth (Vero E6 cells) was “Slowed cell growth”, the “Inhibition of SARS-CoV-2 infection of Vero cells” value [1] was “inhibit SARS-CoV-2 infection of Vero cells” and the “EC50 (inhibition of SARS-CoV-2 CPE)” value [1] was 980 µg/mL. The “Day 2 CPE” value [1, 3] was “no CPE”, the “Day 2 CPE” value [1, 4] was “no CPE” and the “Day 4 CPE” value [1, 4] was “no CPE”.
With `CC(CCC(=O)NCCS(=O)(=O)O)C1CCC2C3C(O)CC4CC(O)CCC4(C)C3CCC12C` (stereo not drawn) [TUDCA, tauroursodeoxycholic acid] the “Health outcome of subject with COVID-19 symptoms” value (COVID-19) was “health returned to normal”, the “Solubility in DMEM/F12” value ([2]; 100 mg/mL DMSO stock diluted in DMEM/F12 to 5 mg/mL) was “came out of solution” and the “Solubility in DMEM/F12” value ([2]; next 1:2 dilution after 5 mg/mL) was “soluble”. For the same molecule, the Cytotoxicity in wells (Vero E6 cells; 1.25 and 0.625 mg/mL final concentrations) was “Cytotoxicity was seen”, the “Health outcome of member who tested positive for SARS-CoV-2 with COVID-19 symptoms” value (SARS-CoV-2 / COVID-19; oral, one member) was “health returned to normal” and the “COVID-19 symptoms in exposed members (prophylaxis)” value (SARS-CoV-2 / COVID-19; twelve members, repeated exposure to COVID-19 patients over at least 3 months) was “None of the other twelve members have presented with COVID-19 symptoms”.
In the case of `CC(CCC(=O)NCCS(=O)(=O)O)C1CCC2C3C(O)CC4CC(O)CCC4(C)C3CCC12C` (stereo not drawn) [TUDCA acid, tauroursodeoxycholic acid], the Cell growth (Vero E6 cells) is reported as “Slowed cell growth”, the “Inhibition of SARS-CoV-2 infection of Vero cells” value [1] is reported as “inhibit SARS-CoV-2 infection of Vero cells” and the “EC50 (inhibition of SARS-CoV-2 CPE)” value [1] is reported as 980 µg/mL. The “Day 2 CPE” value [1, 3] was “no CPE”, the “Day 2 CPE” value [1, 4] was “no CPE” and the “Day 4 CPE” value [1, 4] was “no CPE”.
